Source: PubChem BioAssay AID1259407 (Chemical Carcinogenesis Research Information System (CCRIS), 2018)
The source made the active and inactive calls. How the calls were made is not given here.

Test system: CCRIS mutagenicity, Ames/micronucleus/aberration tests
Test: CCRIS mutagenicity studies
[1] = Test System: AMES SALMONELLA TYPHIMURIUM, Strain/Indicator: TA100, Metabolic Activation: NONE, Method: PREINCUBATION

CN(CCCC(=O)c1cccnc1)N=O
mutagenic call [1]: inactive; negative
mutagenic call (Test System: AMES SALMONELLA TYPHIMURIUM, Strain/Indicator: TA100, Metabolic Activation: RABBIT, LIVER, S-9, Method: PREINCUBATION): active; positive
mutagenic call (Test System: AMES SALMONELLA TYPHIMURIUM, Strain/Indicator: TA100, Metabolic Activation: RABBIT, LUNG, CLARA CELLS, Method: PREINCUBATION): inactive; negative
mutagenic call (Test System: AMES SALMONELLA TYPHIMURIUM, Strain/Indicator: TA100, Metabolic Activation: RABBIT, LUNG, MACROPHAGES, Method: PREINCUBATION): inactive; negative
mutagenic call (Test System: AMES SALMONELLA TYPHIMURIUM, Strain/Indicator: TA100, Metabolic Activation: RABBIT, LUNG, TYPE II CELLS, Method: PREINCUBATION): inactive; negative
mutagenic call (Test System: AMES SALMONELLA TYPHIMURIUM, Strain/Indicator: TA100, Metabolic Activation: RAT LIVER S-9, AROCLOR 1254, Method: PREINCUBATION): inactive; negative
mutagenic call (Test System: AMES SALMONELLA TYPHIMURIUM, Strain/Indicator: TA100, Metabolic Activation: RAT, LIVER, S-9, AROCLOR 1254, Method: STANDARD PLATE): active; positive
mutagenic call (Test System: AMES SALMONELLA TYPHIMURIUM, Strain/Indicator: TA1530, Metabolic Activation: RABBIT, LIVER, S-9, Method: PREINCUBATION): active; positive
mutagenic call (Test System: AMES SALMONELLA TYPHIMURIUM, Strain/Indicator: TA1530, Metabolic Activation: RABBIT, LUNG, CLARA CELLS, Method: PREINCUBATION): inactive; negative
mutagenic call (Test System: AMES SALMONELLA TYPHIMURIUM, Strain/Indicator: TA1530, Metabolic Activation: RABBIT, LUNG, MACROPHAGES, Method: PREINCUBATION): inactive; negative
mutagenic call (Test System: AMES SALMONELLA TYPHIMURIUM, Strain/Indicator: TA1530, Metabolic Activation: RABBIT, LUNG, TYPE II CELLS, Method: PREINCUBATION): inactive; negative
mutagenic call (Test System: AMES SALMONELLA TYPHIMURIUM, Strain/Indicator: TA1535, Metabolic Activation: HAMSTER, LIVER, MICROSOMES, 3-METHYLCHOLANTHRENE, Method: PREINCUBATION): active; positive
mutagenic call (Test System: AMES SALMONELLA TYPHIMURIUM, Strain/Indicator: TA1535, Metabolic Activation: HAMSTER, LIVER, MICROSOMES, AROCLOR 1254, Method: PREINCUBATION): active; positive
mutagenic call (Test System: AMES SALMONELLA TYPHIMURIUM, Strain/Indicator: TA1535, Metabolic Activation: HAMSTER, LIVER, MICROSOMES, DEXAMETHASONE, Method: PREINCUBATION): active; positive
mutagenic call (Test System: AMES SALMONELLA TYPHIMURIUM, Strain/Indicator: TA1535, Metabolic Activation: HAMSTER, LIVER, MICROSOMES, ETHANOL, Method: PREINCUBATION): active; positive
mutagenic call (Test System: AMES SALMONELLA TYPHIMURIUM, Strain/Indicator: TA1535, Metabolic Activation: HAMSTER, LIVER, MICROSOMES, ISOSAFROL, Method: PREINCUBATION): active; positive
mutagenic call (Test System: AMES SALMONELLA TYPHIMURIUM, Strain/Indicator: TA1535, Metabolic Activation: HAMSTER, LIVER, MICROSOMES, PHENOBARBITAL, Method: PREINCUBATION): active; positive
mutagenic call (Test System: AMES SALMONELLA TYPHIMURIUM, Strain/Indicator: TA1535, Metabolic Activation: HAMSTER, LIVER, S-9, 3-METHYLCHOLANTHRENE, Method: PREINCUBATION): active; positive
mutagenic call (Test System: AMES SALMONELLA TYPHIMURIUM, Strain/Indicator: TA1535, Metabolic Activation: HAMSTER, LIVER, S-9, AROCLOR 1254, Method: PREINCUBATION): active; positive
mutagenic call (Test System: AMES SALMONELLA TYPHIMURIUM, Strain/Indicator: TA1535, Metabolic Activation: HAMSTER, LIVER, S-9, DEXAMETHASONE, Method: PREINCUBATION): active; positive
mutagenic call (Test System: AMES SALMONELLA TYPHIMURIUM, Strain/Indicator: TA1535, Metabolic Activation: HAMSTER, LIVER, S-9, ETHANOL, Method: PREINCUBATION): active; positive
mutagenic call (Test System: AMES SALMONELLA TYPHIMURIUM, Strain/Indicator: TA1535, Metabolic Activation: HAMSTER, LIVER, S-9, ISOSAFROL, Method: PREINCUBATION): active; positive
mutagenic call (Test System: AMES SALMONELLA TYPHIMURIUM, Strain/Indicator: TA1535, Metabolic Activation: HAMSTER, LIVER, S-9, PHENOBARBITAL, Method: PREINCUBATION): active; positive
mutagenic call (Test System: AMES SALMONELLA TYPHIMURIUM, Strain/Indicator: TA1535, Metabolic Activation: NONE, Method: STANDARD PLATE): inactive; negative
mutagenic call (Test System: AMES SALMONELLA TYPHIMURIUM, Strain/Indicator: TA1535, Metabolic Activation: RAT, LIVER, HEPATOCYTES, AROCLOR 1254, Method: STANDARD PLATE): active; positive
mutagenic call (Test System: AMES SALMONELLA TYPHIMURIUM, Strain/Indicator: TA1535, Metabolic Activation: RAT, LIVER, HEPATOCYTES, Method: STANDARD PLATE): active; positive
mutagenic call (Test System: AMES SALMONELLA TYPHIMURIUM, Strain/Indicator: TA1535, Metabolic Activation: RAT, LIVER, S-9, AROCLOR 1254, Method: STANDARD PLATE): active; positive
mutagenic call (Test System: AMES SALMONELLA TYPHIMURIUM, Strain/Indicator: TA1535, Metabolic Activation: RAT, LIVER, S-9, Method: STANDARD PLATE): inactive; negative
mutagenic call (Test System: AMES SALMONELLA TYPHIMURIUM, Strain/Indicator: TA1535, Metabolic Activation: RAT, TRACHEAL EPITHELIAL CELLS, AROCLOR 1254, Method: STANDARD PLATE): inactive; negative
mutagenic call (Test System: AMES SALMONELLA TYPHIMURIUM, Strain/Indicator: TA1535, Metabolic Activation: RAT, TRACHEAL EPITHELIAL CELLS, Method: STANDARD PLATE): inactive; negative
mutagenic call (Test System: AMES SALMONELLA TYPHIMURIUM, Strain/Indicator: TA7004, Metabolic Activation: HAMSTER LIVER S-9, AROCLOR 1254, Method: PREINCUBATION): active; positive
mutagenic call (Test System: AMES SALMONELLA TYPHIMURIUM, Strain/Indicator: TA7004, Metabolic Activation: NONE, Method: PREINCUBATION): inactive; negative
mutagenic call (Test System: AMES SALMONELLA TYPHIMURIUM, Strain/Indicator: TA7004, Metabolic Activation: RAT LIVER S-9, AROCLOR 1254, Method: PREINCUBATION): active; positive
mutagenic call (Test System: AMES SALMONELLA TYPHIMURIUM, Strain/Indicator: YG7108-2A6-OR, Metabolic Activation: NONE, Method: PREINCUBATION): active; positive
mutagenic call (Test System: AMES SALMONELLA TYPHIMURIUM, Strain/Indicator: YG7108-2A6, Metabolic Activation: NONE, Method: PREINCUBATION): active; positive
mutagenic call (Test System: AMES SALMONELLA TYPHIMURIUM, Strain/Indicator: YG7108-PCW, Metabolic Activation: NONE, Method: PREINCUBATION): inactive; negative
mutagenic call (Test System: AMES SALMONELLA TYPHIMURIUM, Strain/Indicator: YG7108, Metabolic Activation: RAT LIVER S-9, PHENOBARBITAL AND 5,6-BENZOFLAVONE, Method: PREINCUBATION): active; positive
mutagenic call (Test System: CHINESE HAMSTER V-79, Strain/Indicator: V-79 (HPRT)/6-THIOGUANINE, Metabolic Activation: RAT, HEPATOCYTES): active; positive
mutagenic call (Test System: CHINESE HAMSTER V-79, Strain/Indicator: V-79 (HPRT)/6-THIOGUANINE, Metabolic Activation: RAT, HEPATOMA, H4IIE CELLS): inactive; negative
mutagenic call (Test System: CHINESE HAMSTER V-79, Strain/Indicator: V-79 (HPRT)/6-THIOGUANINE, Metabolic Activation: RAT, LIVER, S-9, AROCLOR 1254): active; positive
mutagenic call (Test System: E. COLI, Strain/Indicator: NR3835, Metabolic Activation: HOST-MEDIATED, Method: IN VIVO-IN VITRO): active; positive
mutagenic call (Test System: UDS RABBIT LUNG CLARA CELLS, Strain/Indicator: THY INCORP, Metabolic Activation: NONE, Method: LIQUID SCINTILLATION COUNTING): active; positive
mutagenic call (Test System: UDS RABBIT LUNG MACROPHAGES, Strain/Indicator: THY INCORP, Metabolic Activation: NONE, Method: LIQUID SCINTILLATION COUNTING): inactive; negative
mutagenic call (Test System: UDS RABBIT LUNG TYPE II CELLS, Strain/Indicator: THY INCORP, Metabolic Activation: NONE, Method: LIQUID SCINTILLATION COUNTING): active; positive
mutagenic call (Test System: UDS RODENT HEPATOCYTES, Strain/Indicator: THY INCORP (NON-S-PHASE), Method: AUTORADIOGRAPHY): active; positive

O=[N+]([O-])N(c1ccccn1)S(=O)(=O)c1ccccc1
mutagenic call (Test System: AMES SALMONELLA TYPHIMURIUM, Strain/Indicator: TA98, Metabolic Activation: NONE, Method: PREINCUBATION): inactive; negative
mutagenic call (Test System: AMES SALMONELLA TYPHIMURIUM, Strain/Indicator: TA98, Metabolic Activation: RAT, LIVER, S-9, AROCLOR 1254, Method: PREINCUBATION): inactive; negative
mutagenic call [1]: inactive; negative
mutagenic call (Test System: AMES SALMONELLA TYPHIMURIUM, Strain/Indicator: TA100, Metabolic Activation: RAT, LIVER, S-9, AROCLOR 1254, Method: PREINCUBATION): inactive; negative

CC(=O)[O-].CC(=O)[O-].CC(=O)[O-].[Cr+3]
mutagenic call (End Point: IN VITRO MICRONUCLEUS, Test System: CHL/IU CELLS, Metabolic Activation: NONE): active; positive
mutagenic call (Test System: UDS RAT HEPATOCYTES, Strain/Indicator: THY INCORP, Metabolic Activation: NONE, Method: AUTORADIOGRAPHY): inactive; negative
